Results reported in patent publication US6689773B2, “Uracil substituted phenyl sulfamoyl carboxamides” (BASF Aktiengesellschaft, priority 2000, dated 2004).

Columns and labels:
Format in all cases: in vivo
[1] = tested on: ABUTH, Velvetleaf, Abutilon theophrasti, Medic.; assay: Postemergence herbicidal evaluation (Example 147); conditions: rating scale 0-9, two to three weeks after treatment
In short: (§1)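 About two-week-old seedlings were sprayed postemergence at roughly 0.016–0.032 kg/ha in 80/20 acetone/water with 1.0% methylated seed oil. After two to three weeks in the greenhouse, injury was rated visually on a 0–9 scale against controls, and repeat tests were averaged.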

[2] = tested on: ALOMY, Blackgrass, Alopecurus myosuroides; assay: Postemergence herbicidal evaluation (Example 147); conditions: rating scale 0-9, two to three weeks after treatment
In short: as §1

[3] = tested on: AMBEL, Ragweed, Common, Ambrosia artemiisifolia, L.; assay: Postemergence herbicidal evaluation (Example 147); conditions: rating scale 0-9, two to three weeks after treatment
In short: as §1

[4] = tested on: CHEAL, Lambsquarters, Chenopodium album, L. Common; assay: Postemergence herbicidal evaluation (Example 147); conditions: rating scale 0-9, two to three weeks after treatment
In short: as §1

[5] = tested on: DIGSA, Crabgrass, (Hairy) L, Digitaria sanguinalis, (L)Scop; assay: Postemergence herbicidal evaluation (Example 147); conditions: rating scale 0-9, two to three weeks after treatment
In short: as §1

[6] = tested on: ECHCG, Barnyardgrass, Echinochloa crusgalli, (L.)Beau; assay: Postemergence herbicidal evaluation (Example 147); conditions: rating scale 0-9, two to three weeks after treatment
In short: as §1

[7] = tested on: GLXMA, Soybean, Glycine max, (L.) Merr.; assay: Postemergence herbicidal evaluation (Example 147); conditions: rating scale 0-9, two to three weeks after treatment
In short: as §1

[8] = tested on: IPOHE, Morningglory, Ivyleaf, Ipomoea hederacea, (L)Jacq.; assay: Postemergence herbicidal evaluation (Example 147); conditions: rating scale 0-9, two to three weeks after treatment
In short: as §1

[9] = tested on: SETVI, Green foxtail, Setaria viridis, (L.)Beau; assay: Postemergence herbicidal evaluation (Example 147); conditions: rating scale 0-9, two to three weeks after treatment
In short: as §1

[10] = tested on: TRZAW, Winter wheat, Tritium Aestivum, L. (Winter); assay: Postemergence herbicidal evaluation (Example 147); conditions: rating scale 0-9, two to three weeks after treatment
In short: as §1

[11] = tested on: XANST, Cocklebur, Xanthium strumariam; assay: Postemergence herbicidal evaluation (Example 147); conditions: rating scale 0-9, two to three weeks after treatment
In short: as §1

[12] = tested on: ZEAMX, Field corn, Zea mays L.; assay: Postemergence herbicidal evaluation (Example 147); conditions: rating scale 0-9, two to three weeks after treatment
In short: as §1

[13] = tested on: ABUTH, Velvetleaf, Abutilon theophrasti, Medic.; assay: Preemergence herbicidal evaluation (Example 148); conditions: rating scale 0-9, two to four weeks after treatment
In short: (§2)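 Sow seed–soil mix onto ~1 in soil; spray aqueous acetone compound solution (~0.125–0.250 kg/ha equivalent); keep on greenhouse benches under standard watering; score injury visually after 2–4 weeks.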

[14] = tested on: ALOMY, Blackgrass, Alopecurus myosuroides; assay: Preemergence herbicidal evaluation (Example 148); conditions: rating scale 0-9, two to four weeks after treatment
In short: as §2

[15] = tested on: AMBEL, Ragweed, Common, Ambrosia artemiisifolia, L.; assay: Preemergence herbicidal evaluation (Example 148); conditions: rating scale 0-9, two to four weeks after treatment
In short: as §2

[16] = tested on: CHEAL, Lambsquarters, Chenopodium album, L. Common; assay: Preemergence herbicidal evaluation (Example 148); conditions: rating scale 0-9, two to four weeks after treatment
In short: as §2

[17] = tested on: DIGSA, Crabgrass, (Hairy) L, Digitaria sanguinalis, (L)Scop; assay: Preemergence herbicidal evaluation (Example 148); conditions: rating scale 0-9, two to four weeks after treatment
In short: as §2

[18] = tested on: ECHCG, Barnyardgrass, Echinochloa crusgalli, (L.)Beau; assay: Preemergence herbicidal evaluation (Example 148); conditions: rating scale 0-9, two to four weeks after treatment
In short: as §2

[19] = tested on: GLXMA, Soybean, Glycine max, (L.) Merr.; assay: Preemergence herbicidal evaluation (Example 148); conditions: rating scale 0-9, two to four weeks after treatment
In short: as §2

[20] = tested on: IPOHE, Morningglory, Ivyleaf, Ipomoea hederacea, (L)Jacq.; assay: Preemergence herbicidal evaluation (Example 148); conditions: rating scale 0-9, two to four weeks after treatment
In short: as §2

[21] = tested on: SETVI, Green foxtail, Setaria viridis, (L.)Beau; assay: Preemergence herbicidal evaluation (Example 148); conditions: rating scale 0-9, two to four weeks after treatment
In short: as §2

[22] = tested on: TRZAW, Winter wheat, Tritium Aestivum, L. (Winter); assay: Preemergence herbicidal evaluation (Example 148); conditions: rating scale 0-9, two to four weeks after treatment
In short: as §2

[23] = tested on: XANST, Cocklebur, Xanthium strumariam; assay: Preemergence herbicidal evaluation (Example 148); conditions: rating scale 0-9, two to four weeks after treatment
In short: as §2

[24] = tested on: ZEAMX, Field corn, Zea mays L.; assay: Preemergence herbicidal evaluation (Example 148); conditions: rating scale 0-9, two to four weeks after treatment
In short: as §2

For CCOC(=O)CN(C)S(N)(=O)=O [compound 53], the “Postemergence herbicidal rating ABUTH” value ([1]; rate 0.016 kg/ha) was 9.0, the “Postemergence herbicidal rating ABUTH” value ([1]; rate 0.032 kg/ha) was 9.0 and the “Postemergence herbicidal rating ALMOY” value ([2]; rate 0.016 kg/ha) was 2.3. For the same compound, the “Postemergence herbicidal rating ALMOY” value ([2]; rate 0.032 kg/ha) was 3.0, the “Postemergence herbicidal rating AMBEL” value ([3]; rate 0.016 kg/ha) was 8.9 and the “Postemergence herbicidal rating AMBEL” value ([3]; rate 0.032 kg/ha) was 9.0. For the same compound, the “Postemergence herbicidal rating CHEAL” value ([4]; rate 0.016 kg/ha) was 8.1, the “Postemergence herbicidal rating CHEAL” value ([4]; rate 0.032 kg/ha) was 8.4 and the “Postemergence herbicidal rating DIGSA” value ([5]; rate 0.016 kg/ha) was 5.3. For the same compound, the “Postemergence herbicidal rating DIGSA” value ([5]; rate 0.032 kg/ha) was 6.6, the “Postemergence herbicidal rating ECHCG” value ([6]; rate 0.016 kg/ha) was 8.1 and the “Postemergence herbicidal rating ECHCG” value ([6]; rate 0.032 kg/ha) was 8.8. The “Postemergence herbicidal rating GLXMA” value ([7]; rate 0.016 kg/ha) was 8.1, the “Postemergence herbicidal rating GLXMA” value ([7]; rate 0.032 kg/ha) was 8.4 and the “Postemergence herbicidal rating IPOHE” value ([8]; rate 0.016 kg/ha) was 8.8. For the same compound, the “Postemergence herbicidal rating IPOHE” value ([8]; rate 0.032 kg/ha) was 9.0, the “Postemergence herbicidal rating SETVI” value ([9]; rate 0.016 kg/ha) was 6.4 and the “Postemergence herbicidal rating SETVI” value ([9]; rate 0.032 kg/ha) was 7.5. The “Postemergence herbicidal rating TRZAW” value ([10]; rate 0.016 kg/ha) was 5.6, the “Postemergence herbicidal rating TRZAW” value ([10]; rate 0.032 kg/ha) was 6.2 and the “Postemergence herbicidal rating XANST” value ([11]; rate 0.016 kg/ha) was 9.0. For the same compound, the “Postemergence herbicidal rating XANST” value ([11]; rate 0.032 kg/ha) was 9.0, the “Postemergence herbicidal rating ZEAMX” value ([12]; rate 0.016 kg/ha) was 7.2 and the “Postemergence herbicidal rating ZEAMX” value ([12]; rate 0.032 kg/ha) was 7.6. The “Preemergence herbicidal rating ABUTH” value ([13]; rate 0.125 kg/ha) was 9.0, the “Preemergence herbicidal rating ABUTH” value ([13]; rate 0.25 kg/ha) was 9.0 and the “Preemergence herbicidal rating ALMOY” value ([14]; rate 0.125 kg/ha) was 1.3. The “Preemergence herbicidal rating ALMOY” value ([14]; rate 0.25 kg/ha) was 2.7, the “Preemergence herbicidal rating AMBEL” value ([15]; rate 0.125 kg/ha) was 8.9 and the “Preemergence herbicidal rating AMBEL” value ([15]; rate 0.25 kg/ha) was 9.0. For the same compound, the “Preemergence herbicidal rating CHEAL” value ([16]; rate 0.125 kg/ha) was 9.0, the “Preemergence herbicidal rating CHEAL” value ([16]; rate 0.25 kg/ha) was 9.0 and the “Preemergence herbicidal rating DIGSA” value ([17]; rate 0.125 kg/ha) was 8.1. The “Preemergence herbicidal rating DIGSA” value ([17]; rate 0.25 kg/ha) was 8.8, the “Preemergence herbicidal rating ECHCG” value ([18]; rate 0.125 kg/ha) was 7.5 and the “Preemergence herbicidal rating ECHCG” value ([18]; rate 0.25 kg/ha) was 8.4. For the same compound, the “Preemergence herbicidal rating GLXMA” value ([19]; rate 0.125 kg/ha) was 8.1, the “Preemergence herbicidal rating GLXMA” value ([19]; rate 0.25 kg/ha) was 8.8 and the “Preemergence herbicidal rating IPOHE” value ([20]; rate 0.125 kg/ha) was 9.0. The “Preemergence herbicidal rating IPOHE” value ([20]; rate 0.25 kg/ha) was 9.0, the “Preemergence herbicidal rating SETVI” value ([21]; rate 0.125 kg/ha) was 5.7 and the “Preemergence herbicidal rating SETVI” value ([21]; rate 0.25 kg/ha) was 7.3. For the same compound, the “Preemergence herbicidal rating TRZAW” value ([22]; rate 0.125 kg/ha) was 1.3, the “Preemergence herbicidal rating TRZAW” value ([22]; rate 0.25 kg/ha) was 2.0 and the “Preemergence herbicidal rating XANST” value ([23]; rate 0.125 kg/ha) was 9.0. For the same compound, the “Preemergence herbicidal rating XANST” value ([23]; rate 0.25 kg/ha) was 9.0, the “Preemergence herbicidal rating ZEAMX” value ([24]; rate 0.125 kg/ha) was 2.3 and the “Preemergence herbicidal rating ZEAMX” value ([24]; rate 0.25 kg/ha) was 4.3.
For C#CCN(C)S(=O)(=O)NC(=O)c1cc(-n2c(=O)cc(C(F)(F)F)n(C)c2=O)c(F)cc1Cl [Example 57], the “Postemergence herbicidal rating ABUTH” value ([1]; rate 0.016 kg/ha) was 2.0, the “Postemergence herbicidal rating ABUTH” value ([1]; rate 0.032 kg/ha) was 5.0 and the “Postemergence herbicidal rating ALMOY” value ([2]; rate 0.016 kg/ha) was 0.0. For the same compound, the “Postemergence herbicidal rating ALMOY” value ([2]; rate 0.032 kg/ha) was 1.0, the “Postemergence herbicidal rating AMBEL” value ([3]; rate 0.016 kg/ha) was 1.0 and the “Postemergence herbicidal rating AMBEL” value ([3]; rate 0.032 kg/ha) was 2.0. For the same compound, the “Postemergence herbicidal rating CHEAL” value ([4]; rate 0.016 kg/ha) was 1.0, the “Postemergence herbicidal rating CHEAL” value ([4]; rate 0.032 kg/ha) was 2.0 and the “Postemergence herbicidal rating DIGSA” value ([5]; rate 0.016 kg/ha) was 1.0. For the same compound, the “Postemergence herbicidal rating DIGSA” value ([5]; rate 0.032 kg/ha) was 2.0, the “Postemergence herbicidal rating ECHCG” value ([6]; rate 0.016 kg/ha) was 1.0 and the “Postemergence herbicidal rating ECHCG” value ([6]; rate 0.032 kg/ha) was 2.0. The “Postemergence herbicidal rating GLXMA” value ([7]; rate 0.016 kg/ha) was 6.0, the “Postemergence herbicidal rating GLXMA” value ([7]; rate 0.032 kg/ha) was 6.5 and the “Postemergence herbicidal rating IPOHE” value ([8]; rate 0.016 kg/ha) was 6.0. The “Postemergence herbicidal rating IPOHE” value ([8]; rate 0.032 kg/ha) was 4.0, the “Postemergence herbicidal rating SETVI” value ([9]; rate 0.016 kg/ha) was 1.0 and the “Postemergence herbicidal rating SETVI” value ([9]; rate 0.032 kg/ha) was 3.0. The “Postemergence herbicidal rating TRZAW” value ([10]; rate 0.016 kg/ha) was 2.0, the “Postemergence herbicidal rating TRZAW” value ([10]; rate 0.032 kg/ha) was 2.5 and the “Postemergence herbicidal rating XANST” value ([11]; rate 0.016 kg/ha) was 2.0. The “Postemergence herbicidal rating XANST” value ([11]; rate 0.032 kg/ha) was 3.0, the “Postemergence herbicidal rating ZEAMX” value ([12]; rate 0.016 kg/ha) was 2.0 and the “Postemergence herbicidal rating ZEAMX” value ([12]; rate 0.032 kg/ha) was 5.0. The “Preemergence herbicidal rating ABUTH” value ([13]; rate 0.125 kg/ha) was 2.0, the “Preemergence herbicidal rating ABUTH” value ([13]; rate 0.25 kg/ha) was 2.0 and the “Preemergence herbicidal rating ALMOY” value ([14]; rate 0.125 kg/ha) was 0.0. The “Preemergence herbicidal rating ALMOY” value ([14]; rate 0.25 kg/ha) was 0.0, the “Preemergence herbicidal rating AMBEL” value ([15]; rate 0.125 kg/ha) was 2.0 and the “Preemergence herbicidal rating AMBEL” value ([15]; rate 0.25 kg/ha) was 2.0. For the same compound, the “Preemergence herbicidal rating CHEAL” value ([16]; rate 0.125 kg/ha) was 6.0, the “Preemergence herbicidal rating CHEAL” value ([16]; rate 0.25 kg/ha) was 8.0 and the “Preemergence herbicidal rating DIGSA” value ([17]; rate 0.125 kg/ha) was 1.0. The “Preemergence herbicidal rating DIGSA” value ([17]; rate 0.25 kg/ha) was 3.0, the “Preemergence herbicidal rating ECHCG” value ([18]; rate 0.125 kg/ha) was 1.0 and the “Preemergence herbicidal rating ECHCG” value ([18]; rate 0.25 kg/ha) was 2.0. The “Preemergence herbicidal rating GLXMA” value ([19]; rate 0.125 kg/ha) was 0.0, the “Preemergence herbicidal rating GLXMA” value ([19]; rate 0.25 kg/ha) was 1.0 and the “Preemergence herbicidal rating IPOHE” value ([20]; rate 0.125 kg/ha) was 0.0. For the same compound, the “Preemergence herbicidal rating IPOHE” value ([20]; rate 0.25 kg/ha) was 3.0, the “Preemergence herbicidal rating SETVI” value ([21]; rate 0.125 kg/ha) was 0.0 and the “Preemergence herbicidal rating SETVI” value ([21]; rate 0.25 kg/ha) was 1.0. The “Preemergence herbicidal rating TRZAW” value ([22]; rate 0.125 kg/ha) was 0.0, the “Preemergence herbicidal rating TRZAW” value ([22]; rate 0.25 kg/ha) was 0.0 and the “Preemergence herbicidal rating XANST” value ([23]; rate 0.125 kg/ha) was 0.0. For the same compound, the “Preemergence herbicidal rating XANST” value ([23]; rate 0.25 kg/ha) was 0.0, the “Preemergence herbicidal rating ZEAMX” value ([24]; rate 0.125 kg/ha) was 0.0 and the “Preemergence herbicidal rating ZEAMX” value ([24]; rate 0.25 kg/ha) was 0.0.
